Results from the OligoGym collection.
HELM strings list units from the 5' end as sugar, base in round brackets, then linkage (d deoxyribose, r ribose, m 2'-O-methyl, p phosphodiester). [sp] = phosphorothioate linkage

What was measured:
CTNNB1 [1] = assay: HEK293-TLR7, 100 nM ASO, then resiquimod
CTNNB1 [2] = assay: HEK293-TLR8, 100 nM ASO, then resiquimod

Substance | TLR7 signal (NF-kB luciferase) (% of resiquimod alone) (CTNNB1 [1]) | TLR8 potentiation (NF-kB luciferase) (fold of resiquimod alone) (CTNNB1 [2])
RNA1{m(G)[sp].m(G)[sp].m(G)[sp].m(A)[sp].m(A)[sp].d(A)[sp].d(G)[sp].d(G)[sp].d(T)[sp].d(T)[sp].d(A)[sp].d(T)[sp].d(G)[sp].d(C)[sp].d(A)[sp].m(A)[sp].m(G)[sp].m(G)[sp].m(U)[sp].m(C)}$$$$ | 51.4 | 1.76
RNA1{m(G)[sp].m(G)[sp].m(G)[sp].m(U)[sp].m(C)[sp].d(C)[sp].d(A)[sp].d(C)[sp].d(C)[sp].d(A)[sp].d(C)[sp].d(T)[sp].d(A)[sp].d(G)[sp].d(C)[sp].m(C)[sp].m(A)[sp].m(G)[sp].m(U)[sp].m(A)}$$$$ | 33.5 | 1.18
RNA1{m(G)[sp].m(G)[sp].m(G)[sp].m(U)[sp].m(C)[sp].d(C)[sp].d(A)[sp].d(T)[sp].d(A)[sp].d(C)[sp].d(C)[sp].d(C)[sp].d(A)[sp].d(A)[sp].d(G)[sp].m(G)[sp].m(C)[sp].m(A)[sp].m(U)[sp].m(C)}$$$$ | 47.6 | 1.08
RNA1{m(G)[sp].m(G)[sp].m(U)[sp].m(C)[sp].m(C)[sp].d(A)[sp].d(T)[sp].d(A)[sp].d(C)[sp].d(C)[sp].d(C)[sp].d(A)[sp].d(A)[sp].d(G)[sp].d(G)[sp].m(C)[sp].m(A)[sp].m(U)[sp].m(C)[sp].m(C)}$$$$ | 105 | 1
RNA1{m(G)[sp].m(G)[sp].m(U)[sp].m(G)[sp].m(G)[sp].d(T)[sp].d(G)[sp].d(G)[sp].d(C)[sp].d(C)[sp].d(A)[sp].d(C)[sp].d(C)[sp].d(C)[sp].d(A)[sp].m(U)[sp].m(C)[sp].m(U)[sp].m(C)[sp].m(A)}$$$$ | 75.6 | 1.11
RNA1{m(G)[sp].m(U)[sp].m(C)[sp].m(C)[sp].m(A)[sp].d(A)[sp].d(G)[sp].d(A)[sp].d(T)[sp].d(C)[sp].d(A)[sp].d(G)[sp].d(C)[sp].d(A)[sp].d(G)[sp].m(U)[sp].m(C)[sp].m(U)[sp].m(C)[sp].m(A)}$$$$ | 32.6 | 1.96
RNA1{m(U)[sp].m(A)[sp].m(G)[sp].m(C)[sp].m(G)[sp].d(T)[sp].d(G)[sp].d(T)[sp].d(C)[sp].d(T)[sp].d(G)[sp].d(G)[sp].d(A)[sp].d(A)[sp].d(G)[sp].m(C)[sp].m(U)[sp].m(U)[sp].m(C)[sp].m(C)}$$$$ | 60.3 | 1.56
RNA1{m(U)[sp].m(A)[sp].m(U)[sp].m(U)[sp].m(U)[sp].d(T)[sp].d(A)[sp].d(A)[sp].d(G)[sp].d(C)[sp].d(A)[sp].d(T)[sp].d(A)[sp].d(T)[sp].d(T)[sp].m(A)[sp].m(A)[sp].m(A)[sp].m(A)[sp].m(A)}$$$$ | 62.3 | 2.61
RNA1{m(U)[sp].m(C)[sp].m(A)[sp].m(A)[sp].m(A)[sp].d(G)[sp].d(T)[sp].d(A)[sp].d(T)[sp].d(A)[sp].d(T)[sp].d(A)[sp].d(C)[sp].d(C)[sp].d(T)[sp].m(G)[sp].m(U)[sp].m(U)[sp].m(U)[sp].m(U)}$$$$ | 64.4 | 4.27
RNA1{m(U)[sp].m(C)[sp].m(A)[sp].m(A)[sp].m(U)[sp].d(G)[sp].d(G)[sp].d(G)[sp].d(A)[sp].d(G)[sp].d(A)[sp].d(A)[sp].d(T)[sp].d(A)[sp].d(A)[sp].m(A)[sp].m(G)[sp].m(C)[sp].m(A)[sp].m(G)}$$$$ | 68.9 | 3.97
RNA1{m(U)[sp].m(C)[sp].m(A)[sp].m(U)[sp].m(U)[sp].d(A)[sp].d(T)[sp].d(A)[sp].d(T)[sp].d(T)[sp].d(T)[sp].d(A)[sp].d(C)[sp].d(T)[sp].d(A)[sp].m(A)[sp].m(A)[sp].m(G)[sp].m(C)[sp].m(U)}$$$$ | 65.5 | 4.22
RNA1{m(U)[sp].m(C)[sp].m(C)[sp].m(A)[sp].m(U)[sp].d(C)[sp].d(C)[sp].d(C)[sp].d(T)[sp].d(T)[sp].d(C)[sp].d(C)[sp].d(T)[sp].d(G)[sp].d(T)[sp].m(U)[sp].m(U)[sp].m(A)[sp].m(G)[sp].m(U)}$$$$ | 96.4 | 4.57
RNA1{m(U)[sp].m(C)[sp].m(U)[sp].m(A)[sp].m(U)[sp].d(T)[sp].d(T)[sp].d(G)[sp].d(T)[sp].d(C)[sp].d(T)[sp].d(A)[sp].d(T)[sp].d(T)[sp].d(T)[sp].m(U)[sp].m(A)[sp].m(U)[sp].m(A)[sp].m(C)}$$$$ | 92.8 | 4.61
RNA1{m(U)[sp].m(C)[sp].m(U)[sp].m(U)[sp].m(A)[sp].d(T)[sp].d(A)[sp].d(A)[sp].d(T)[sp].d(T)[sp].d(A)[sp].d(T)[sp].d(T)[sp].d(G)[sp].d(C)[sp].m(A)[sp].m(A)[sp].m(G)[sp].m(U)[sp].m(G)}$$$$ | 110 | 4.58
